Data: patent US9662319B2 (Mayo Foundation for Medical Education and Research, priority 2011, dated 2017)

How the values were obtained:
[1] = tested on: CRBN depleted myeloma cell lines; assay: MTT cell viability of CRBN shRNA knock-down myeloma cell lines versus NT control cells in presence of anti-myeloma drugs; type: cell-based, human; settings: sorted GFP positive myeloma cell lines with CRBN knock-down
Experimental: (§1) The lentiviruses expressing NT or CRBN shRNAs were subcloned into a GFP containing construct and used to infect various myeloma cell lines as described elsewhere (Zhu et al., Blood, 117(14):3847-3857 (2011); Epublished Feb. 2, 2011). After a 48-hour infection period, efficiency was measured at 72 hours and 6 days post infection by FACScan analysis of GFP expression. Cell viability was measured by 3-(4,5-dimethylthiazol)-2,5-diphenyl tetrazolium (MTT) dye absorbance according to the manufacturer's instructions (Boehringer Mannheim, Mannheim, Germany). Cells were also harvested at 72 hours post infection for real-time PCR analysis of CRBN levels in control and CRBN shRNA expressing cells. At three weeks post infection, GFP-positive cells were sorted and expanded. Real-time PCR was performed to measure CRBN levels in sorted cells.
Plates were incubated for 72 hours to six days. Cell viability was determined using an MTT assay. Each experimental condition was performed in triplicate and repeated at least once.
Proliferation of those CRBN depleted but surviving MM cells were then tested in the absence or presence of different anti-myeloma drugs.

[2] = tested on: human MM cells lines; assay: MTT assay, baseline cytotoxicity on a panel of human MM cell lines; type: cell-based; settings: 11 tested MM cell lines, 1.6 μM to 50 μM, 72 hours, in vitro
Experimental: as §1
In some experiments, cells were incubated with various doses of lenalidomide, dexamethasone, melphalan, or bortezomib. Plates were incubated for 72 hours to six days. Cell viability was determined using an MTT assay. Each experimental condition was performed in triplicate and repeated at least once.
A MTT assay was performed on a panel of genetically heterogeneous human MM cells lines in vitro (FIG. 1). […] The same dose of thalidomide, however, had no effect on MM cell growth.

SMILES	sensitivity of CRBN knock-down cells compared with NT control cells [1]	growth of MM cell lines (MTT) [2]
Nc1cccc2c1C(=O)N(C1CCC(=O)NC1=O)C2=O (stereo not shown) [pomalidomide]	resistance	
Nc1cccc2c1CN(C1CCC(=O)NC1=O)C2=O (stereo not shown) [Lenalidomide]		inhibited growth of 8 of 11 tested MM cell lines
O=C1CCC(N2C(=O)c3ccccc3C2=O)C(=O)N1 (stereo not shown) [thalidomide]		no effect
CC(C)C[C@H](NC(=O)[C@H](Cc1ccccc1)NC(=O)c1cnccn1)B(O)O [Bortezomib]	more sensitive	
